# Measured values as given in US6569633B1, “Modulation of the sulfonylurea receptor and calcium in adipocytes for treatment of obesity/diabetes” (Artecel Science, Inc., priority 1998, dated 2003).
# Legend:
# [1] = system: FAS activity in human adipocytes; assay: Fatty acid synthase (FAS) activity in human adipocytes; format: cell-based
# [2] = system: hyperinsulinemic obese adults; details: cited from earlier work
# [3] = system: GPDH activity in human adipocytes; assay: GPDH activity in human adipocytes; format: cell-based; details: 10 μM glibenclamide plus 10 μM diazoxide
# Description: FIG. 3. The lipogenic effect of glibenclamide in human adipocytes. As an indicator of lipogenic stimulation, both FAS and GPDH activity were measured. A. Glibenclamide stimulation of FAS activity. Human adipocytes were treated with 10 μM glibenclamide alone, 10 μM glibenclamide plus 10 μM diazoxide or 10 μM glibenclamide plus 30 μM nitrendipine for 48 hr. FAS was measured as described (6, 14). *p<0.001 vs. Control. B. Glibenclamide stimulation of GPDH activity. Human adipocytes were treated with 10 μM glibenclamide or 10 μM glibenclamide plus 10 μM diazoxide for 48 hr. GPDH activity was measured as described (14). *p<0.01 vs. Control.
# To study the role of adipocyte SUR1 in regulating lipogenesis, we treated human adipocyte with SUR1 agonist and antagonist using FAS and GPDH activities as lipogenic markers. Human adipocytes were incubated in 24-well plates with the treatments indicated for 48 hr. FAS and GPDH activities were determined spectrophotometrically in crude cytosolic extracts of human adipocytes by measuring the oxidation rate of NADPH or NADH respectively, as previously described (14). The protein correction was measured by a modified Bradford method using Coomassie Blue dye (Pierce, Rockford, Ill.).
# human adipocytes = assay: Intracellular Ca2+ ([Ca2+]i) by fura-2 fluorometry in isolated human adipocytes; format: cell-based
# Description: FIG. 2. Glibenclamide stimulation of [Ca^2+]i in isolated human adipocyte. [Ca^2+]i in isolated human adipocytes was determined fluorometrically as previously described (4,7). Briefly, the human adipocytes isolated as described above were incubated in DMEM medium overnight for cell recovery. Prior to [Ca^2+]i measurement, adipocytes were pre-incubated in serum-free medium for 2 hrs, rinsed with HBSS solution containing the following components in mM: NaCl 138, CaCl2 1.8, MgSO4 0.8, NaH2PO4 0.9, NaHCO3 4, glucose 20, glutamine 6, HEPES 20 and BSA 1%. Cells were then loaded with fura-2 acetoxymethyl ester (10 μM) in the same buffer for 45 min at 37° C. in the dark with continuous shaking. To remove extracellular dye, cells were rinsed with HBSS for 3 times and resuspended in this solution at a concentration of 2×10^5 cells/ml. [Ca^2+]i was measured using dual excitation (340 and 380 nm) and single emission (510 nm) fluorometry. Following the establishment of stable baseline, the response to glibenclamide (10 and 20 μM) was determined. Digitonin (25 μM) and Tris/EGTA (100 mM) were used to measure maximal and minimal fluorescence to calibrate the signals, and final [Ca^2+]i was then calculated by the equation of Grynkiewicz et al. (17). […] Glibenclamide (Glib) was added at time designated by the arrow. B. The dose-responsive effect of glibenclamide on [Ca^2+]i in human adipocytes. Glibenclamide was added at 10 and 20 µM at the indicated times. *p<0.05 vs. Control, **p<0.05 vs. 10 μM glibenclamide.
# The functionality of the SUR1 receptor was determined with respect to calcium mobilization and small molecule effects. [Ca^2+]i response was measured fluorometrically in isolated human adipocytes using a standard method (2,16). Briefly, isolated human adipocytes were incubated in DMEM or any other suitable medium such as Ham's F-10, Modified Eagle's media plus 5-10% fetal calf serum overnight for cell recovery. Prior to [Ca^2+]i measurement, adipocytes were pre-incubated in serum-free medium for 2 hrs, rinsed with HBSS solution containing the following components in mM: NaCl 138, CaCl2 1.8, MgSO4 0.8, NaH2PO4 0.9, NaHCO3 4, glucose 20, glutamine 6, HEPES 20 and BSA 1%. Cells were then loaded with fura-2 acetoxymethyl ester (10 μM) in the same buffer for 30-60 min at 37° C. in dark with continuous shaking. To remove extracellular dye, cells were rinsed with HBSS for three times and resuspended in this solution at a concentration of 1-10×10^5 cells/ml. [Ca^2+]i was measured using dual excitation (340 and 380 nm) and single emission (510 nm) fluorometry. Following the establishment of stable baseline, the response to a SUR agonist such as glibenclamide (1-20 μM) can be determined. Digitonin (25 μM) and Tris/EGTA (100 mM) were used to measure maximal and minimal fluorescence to calibrate the signals, and final [Ca^2+]i was then calculated by a known method such as described in Grynkiewicz et al (17).
# Correlation of lipolysis with flux of intracellular calcium ([Ca^2+]i) concentration is then performed. [Ca^2+]i is measured in primary adipocytes. For primary adipocytes, 3 ml of cells are resuspended in 6 ml of HBSS and fura-2/AM was loaded for 80 min at 37° C. Extracellular fura-2/AM is washed three times with HBSS by centrifugation. [Ca^2+]i levels are then measured fluorometrically in suspensions using dual excitation (340 and 380 nm)/single emission (510 nm) fluorometry and [Ca^2+]i is calculated by the computer in the fluorometer. As a control, after loading fura-2/AM cells are pretreated with nitrendipine (RBI, Natick, Mass.) (30 μM, final concentration) for 10 min at 37° C.
# obese Zucker rats = details: cited from earlier work
smiles,measurement,setting,value
CC1=NS(=O)(=O)c2cc(Cl)ccc2N1 [diazoxide],fatty acid synthase activity,[1]; 1 nM insulin and 5 μM diazoxide,7.08 ± 0.10 nmol/min/mg
same,fatty acid synthase activity,[1]; 5 μM diazoxide and 2 μM glibenclamide,1.00±0.10 nmol/min/mg protein
same,fatty acid synthase activity,[1]; 5 μM diazoxide and 10 μM glibenclamide,1.21±0.31 nmol/min/mg protein
same,glibenclamide-caused increase in FAS activity,"[1]; 10 μM glibenclamide plus 10 μM diazoxide, 48 hr",completely blocked
same,fatty acid synthase activity,[1]; 40 mM KCl in the presence of 5 μM diazoxide,3.24±0.41 nmol/min/mg protein
same,glibenclamide-induced increases in fatty acid synthase activity,[1]; inclusion of 5 μM diazoxide,completely prevented
same,effect on obesity,[2],significant antiobesity effect
same,glibenclamide-stimulated increase in GPDH activity,[3],totally blocked
same,[Ca2+]i response to any dose of glibenclamide,human adipocytes; in the presence of 5 μM diazoxide,no detectable response
same,[Ca2+]i response to any dose of glibenclamide,human adipocytes; in the presence of 2-10 μM diazoxide,no detectable response
same,effect on obesity,obese Zucker rats,antiobesity effect
